Measurements published in patent US20180353501A1 (Arvinas, Inc., priority 2017, published 2018).

Target: T1, FLAG-p38δ (Homo sapiens, UniProt O15264)
T1 construct: expressed in transfected cells; host or cells: HeLa cells, transient transfection with Lipofectamine 2000
T1 sequence (O15264 1-365): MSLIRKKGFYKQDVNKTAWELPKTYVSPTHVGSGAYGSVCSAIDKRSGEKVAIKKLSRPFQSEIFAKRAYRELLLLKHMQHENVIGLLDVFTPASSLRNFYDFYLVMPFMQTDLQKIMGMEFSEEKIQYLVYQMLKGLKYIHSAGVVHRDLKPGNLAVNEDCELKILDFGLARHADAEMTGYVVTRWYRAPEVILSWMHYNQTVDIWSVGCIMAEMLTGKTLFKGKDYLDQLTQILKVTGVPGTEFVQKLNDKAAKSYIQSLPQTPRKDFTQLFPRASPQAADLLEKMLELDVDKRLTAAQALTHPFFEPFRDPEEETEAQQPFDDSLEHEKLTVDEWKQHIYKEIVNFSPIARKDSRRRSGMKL
Assay: Ubiquitination assay, HeLa cells co-transfected with HA-Ub and FLAG-p38δ
Format: cell-based
Conditions: 1 μM
Description: FIGS. 15A, 15B, and 15C. Differential p38δ:PROTAC:VHL ternary complex affinities result in distinct cellular ubiquitination outcomes. (A) Both exemplary compound 50 and 46 pull-down p38δ in vitro, however compound 46 maintains ternary complex at lower concentrations. As in FIG. 14A, GST-tagged VBC was used as a bait to trap recombinant p38δ in the presence of vehicle (DMSO) or the indicated concentrations of compound 50 or 46. The rightmost lane represents a 1:25 dilution of initial input protein used in each pull-down. […] Samples were assessed by western blot and CUL2 and α-tubulin serve as positive and negative GST-VBC immunoprecipitation controls, respectively. […] FLAGimmunoprecipitated lysates were separated by SDS-PAGE and assessed via western blots detecting HA (Ub). […]
HeLa cells (2×10^6) were seeded into 10 cm dishes and allowed to adhere overnight. […] Lysates were spun down at 14,000×g at 4° C. for 20 minutes and protein content was measured by Pierce BCA Protein Assay (ThermoFisher Scientific). […] Immunoprecipitated protein was eluted off of the beads by heating at 95° C. for 5 minutes and the supernatant was run on an SDS-PAGE gel and evaluated for the presence of immunoprecipitated FLAG-tagged proteins (anti-FLAG M2, Sigma #F1804), as well as ubiquitinated FLAG-tagged proteins (anti-HA-tag (6E2), CST #2367). […]

SMILES	ubiquitination of FLAG-immunoprecipitated p38δ
COc1cc2c(Oc3ccc(NC(=O)C4(C(=O)Nc5ccc(F)cc5)CC4)cc3F)ccnc2cc1OCCOCCOCCOc1cc(-c2scnc2C)ccc1CNC(=O)[C@@H]1C[C@@H](O)CN1C(=O)[C@H](C(C)C)N1Cc2ccccc2C1=O [compound 46]	levels of ubiquitination of FLAG-immunoprecipitated p38δ greater than control cells
COc1cc2c(Oc3ccc(NC(=O)C4(C(=O)Nc5ccc(F)cc5)CC4)cc3F)ccnc2cc1OCCCCOCCCCOCC(=O)N[C@H](C(=O)N1C[C@H](O)C[C@H]1C(=O)NCc1ccc(-c2scnc2C)cc1)C(C)(C)C [compound 50, N-(3-fluoro-4-((7-(4-(4-(2-(((S)-1-((2S,4R)-4-hydroxy-2-((4-(4-methylthiazol-5-yl)benzyl)carbamoyl)pyrrolidin-1-yl)-3,3-dimethyl-1-oxobutan-2-yl)amino)-2-oxoethoxy)butoxy)buto-xy)-6-methoxyquinolin-4-yl)oxy)phenyl)-N-(4-fluorophenyl)cyclopropane-1,1-dicarboxa-mide]	far less abundant
